Where a name gives a salt, the structure may show the parent alone.

The experiment deals with T1, human Chk1 (GST-Chk1) (Homo sapiens, UniProt O14757).
T1 construct: made in house; host or cells: insect cells (baculovirus, Bac-to-Bac)
T1 sequence (O14757 1-476): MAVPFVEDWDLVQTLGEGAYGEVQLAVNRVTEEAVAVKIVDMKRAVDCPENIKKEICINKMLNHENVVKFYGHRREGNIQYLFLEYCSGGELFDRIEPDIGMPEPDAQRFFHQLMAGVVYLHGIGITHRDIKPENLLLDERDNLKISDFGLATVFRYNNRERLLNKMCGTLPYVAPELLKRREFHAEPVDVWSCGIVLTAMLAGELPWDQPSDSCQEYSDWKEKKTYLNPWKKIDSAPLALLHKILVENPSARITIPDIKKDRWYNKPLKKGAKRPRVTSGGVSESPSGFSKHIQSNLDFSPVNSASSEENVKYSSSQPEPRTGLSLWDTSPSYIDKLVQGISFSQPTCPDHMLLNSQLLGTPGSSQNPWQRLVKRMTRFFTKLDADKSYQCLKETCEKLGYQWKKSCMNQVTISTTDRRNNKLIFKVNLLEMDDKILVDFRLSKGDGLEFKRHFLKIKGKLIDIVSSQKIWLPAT
The experiment in a line: Chk1 DELFIA kinase assay (2 nM GST-Chk1, 600 μM ATP). Type of experiment: biochemical. As to conditions: Biotin-GLYRSPSMPEN-amide substrate. On the procedure:
Recombinant human Chk1 was expressed as a fusion protein with glutathione S-transferase at the amino-terminus (GST-Chk1) using standard baculovirus vectors and (Bac-to-Bac®) insect cell expression system purchased from GIBCO™ Invitrogen. Recombinant protein expressed in insect cells was purified using glutathione sepharose (Amersham Biotech) using standard procedures described by the manufacturer.
Chk1 DELFIA® Kinase Assay:
Assays (25 μL) utilized 2 nM GST-Chk1 containing 10 mM Tris, pH 7.5, 20% glycerol, 50 mM sodium chloride (NaCl), 0.01% Surfact-Amps® 20, 1 μM peptide stubstrate (Biotin-GLYRSPSMPEN-amide) (SEQ ID NO: 3), 01.% BSA, 2 mM DTT, 4% DMSO, 600 μM ATP, 10 MM MgCl2 and reacted for 50 minutes at room temperature. Reactions were terminated with 100 μL of Stop buffer containing 1% BSA, 10 mM Tris, pH 8.0, 150 mM NaCl, 100 mM EDTA. Stopped reactions (100 μL) were transferred to 96 well NeutrAvidin plates (Pierce) to capture the biotin-peptide substrate during a 30 minute room temperature incubation. Wells were washed and reacted with 100 μL PerkinElmer Wallac Assay Buffer containing 21.5 ng/ml anti-phospho-Ser216-Cdc25c rabbit polyclonal antibody from Cell Signaling Technology (Beverly, Mass.) and 292 ng/ml europium labeled anti-rabbit-IgG for 1 hour at room temperature. Wells were washed and europium released from the bound antibody by addition of Enhancement Solution (100 μL) (PerkinElmer Wallac) and detected using a Perkin Elmer Wallac Envison™ 2100 multilabel reader using standard manufacturer settings.

Turning to `Cc1[nH]nc2c1c(=O)n(CCCNCc1ncc[nH]1)c1ccc(Cl)cc21` [Example 244, 8-Chloro-5-{3-[(1H-imidazol-2-ylmethyl)-amino]-propyl}-3-methyl-2,5-dihydro-pyrazolo[4,3-c]quinolin-4-one], the IC50 is less than 1000 nM.

In the case of `Cc1[nH]nc2c1c(=O)n(CCCN)c1cc(C#CCN3CCCC3)ccc21` [Example 340, 5-(3-Amino-propyl)-3-methyl-7-(3-pyrrolidin-1-yl-prop-1-ynyl)-2,5-dihydro-pyrazolo [4,3-c]quinolin-4-one], the IC50 is less than 1000 nM. Next, `Cc1[nH]nc2c1c(=O)n(CCCNC(=O)c1ccc(Cl)cc1)c1ccc(C#CCN3CCCC3)cc21` [Example 332, 4-Chloro-N-{3-[3-methyl-4-oxo-8-(3-pyrrolidin-1-yl-prop-1-ynyl)-2,4-dihydro-pyrazolo[4,3-c]quinolin-5-yl]-propyl}-benzamide]: less than 1000 nM. For `Cc1[nH]nc2c1c(=O)n(C)c1c(C#CCCN)cc(Cl)cc21` [Compound 345, 6-(4-amino-but-1-ynyl)-8-chloro-3,5-dimethyl-2,5-dihydro-pyrazolo[4,3-c]quinolin-4-one] the value was less than 1000 nM; for `CNCCCn1c(=O)c2c(CCOC)[nH]nc2c2cc(C)ccc21` [Example 236, 3-(2-Methoxy-ethyl)-8-methyl-5-(3-methylamino-propyl)-2,5-dihydro-pyrazolo[4,3-c]quinolin-4-one], less than 1000 nM; for `NCCCn1c(=O)c2c(C3CCCC3)[nH]nc2c2cc(Cl)ccc21` [Example 365, 5-(3-Amino-propyl)-8-chloro-3-cyclopentyl-2,5-dihydro-pyrazolo[4,3-c]quinolin4-one], less than 1000 nM. For `CCOc1ccc2c(c1)c1n[nH]c(C)c1c(=O)n2CCCN` [Example 256, 5-(3-Amino-propyl)-8-ethoxy-3methyl-2,5-dihydro-pyrazolo[4,3-c]quinolin-4-one] the value was less than 1000 nM. `Cc1[nH]nc2c1c(=O)n(CCCNC(=N)N)c1ccc(Cl)cc21` [Compound 253, N-[3-(8-Chloro-3-methyl-4-oxo-2,4-dihydro-pyrazolo[4,3-c]quinolin-5-yl)-propyl]-guanidine] showed an IC50 of less than 1000 nM. Next, `CCCOCCc1[nH]nc2c1c(=O)n(CCCN)c1ccc(Cl)cc21` [Example 321, 5-(3-Amino-propyl)-8-chloro-3-(2-propoxy-ethyl)-2,5-dihydro-pyrazolo[4,3-c]quinolin-4-one]: less than 1000 nM; `Cc1[nH]nc2c1c(=O)n(C)c1c(CCCO)cc(Cl)cc21` [Example 367, 8-Chloro-6-(3-hydroxy-propyl)-3,5-dimethyl-2,5-dihydro-pyrazolo[4,3-c]quinolin-4-one]: less than 1000 nM; `C#Cc1ccc2c(c1)c1n[nH]c(C)c1c(=O)n2C[C@H]1CCCNC1` [Example 303, 8-Ethynyl-3-methyl-5-piperidin-3-ylmethyl-2,5-dihydro-pyrazolo[4,3-c]quinolin-4-one]: less than 1000 nM.

`CC(=O)N1CCN(CC#Cc2ccc3c(c2)c2n[nH]c(C)c2c(=O)n3CCCN)CC1` [Example 287, 8-[3-(4-Acetyl-piperazin-1-yl)-prop-1-ynyl]-5-(3-amino-propyl)-3-methyl-2,5-dihydro-pyrazolo[4,3-c]quinolin-4-one]: the IC50 was less than 1000 nM. Next, `Cc1[nH]nc2c1c(=O)n(CC1CNC1)c1ccc(Cl)cc21` [Example 228, 5-Azetidin-3-ylmethyl-8-chloro-3-methyl-2,5-dihydro-pyrazolo[4,3-c]quinolin-4-one]: less than 1000 nM. For `CNCCCn1c(=O)c2c(C)[nH]nc2c2cc(C)ccc21` [Example 235, 3,8-Dimethyl-5-(3-methylamino-propyl)-2,5-dihydro-pyrazolo[4,3-c]quinolin-4-one] the value was less than 1000 nM; for `CNCCCn1c(=O)c2c(C)[nH]nc2c2cc(Cl)ccc21` [Example 231, 8-Chloro-3-methyl-5-(3-methylamino-propyl)-2,5-dihydro-pyrazolo[4,3-c]quinolin-4-one], less than 1000 nM; for `Cc1[nH]nc2c1c(=O)n(CCCN)c1ccc(C#CCN3CCOCC3)cc21` [Example 289, 5-(3-Amino-propyl)-3-methyl-8-(3-morpholin-4-yl-prop-1-ynyl]-2,5-dihydro-pyrazolo[4,3-c]quinolin-4-one], less than 1000 nM. Next, `CCc1[nH]nc2c1c(=O)n(CCCNC)c1ccc(Cl)cc21` [Example 331, 8-Chloro-3-ethyl-5-(3-methylamino-propyl)-2,5-dihydro-pyrazolo[4,3-c]quinolin4-one]: less than 1000 nM. `Cc1[nH]nc2c1c(=O)n(C[C@H](C)CN)c1ccc(F)cc21` (stereo in doubt) [Compound 202, 5-(3-Amino-2-methyl-propyl)-8-fluoro-3-methyl-2,5-dihydro-pyrazolo[4,3-c]quinolin-4-one] came in with an IC50 of less than 1000 nM.

Regarding `Cc1[nH]nc2c1c(=O)n(CCC(C)N)c1ccc(Cl)cc21` (centres unmarked) [Compound 216, 5-(3-Amino-butyl)-8-chloro 3-methyl-2,5-dihydro-pyrazolo[4,3-c]quinolin-4-one], the IC50 is less than 1000 nM. Take `CCNCC(O)CCn1c(=O)c2c(C)[nH]nc2c2cc(Cl)ccc21` (centres unmarked) [Example 248, 8-Chloro-5-(4-ethylamino-3-hydroxy-butyl)-3-methyl-2,5-dihydro-pyrazolo[4,3-c]quinolin-4-one]: the IC50 was less than 1000 nM. Next, `Cc1[nH]nc2c1c(=O)n(C)c1c(C#CCO)cc(Cl)cc21` [Compound 344, 8-Chloro-6-(3-hydroxy-prop-1-ynyl)-3,5-dimethyl-2,5-dihydro-pyrazolo[4,3-c]quinolin-4-one]: 1000 to 10000 nM; `Cc1[nH]nc2c1c(=O)n(CCCN)c1ccc(-c3ccoc3)cc21` [Example 309, 5-(3-Amino-propyl)-8-furan-3-yl-3-methyl-2,5-dihydro-pyrazolo[4,3-c]quinolin-4-one]: less than 1000 nM. With `Cc1[nH]nc2c1c(=O)n(CCCN)c1ccc(C#CC(C)O)cc21` (centres unmarked) [Example 282, 5-(3-Amino-propyl)-8-(3-hydroxy-but-1-ynyl)-3-methyl 2,5-dihydro-pyrazolo[4,3-c]quinolin-4-one], the IC50 is less than 1000 nM. For `Cc1[nH]nc2c1c(=O)n(CCCN)c1ccc(C#CCN3CCN(C)CC3)cc21` [Example 288, 5-(3-Amino-propyl)-3-methyl-8-[3-(4-methyl-piperazin-1-yl)-prop-1-ynyl]-2,5-dihydro-pyrazolo[4,3-c]quinolin-4-one] the value was less than 1000 nM; for `Cc1[nH]nc2c1c(=O)n(CCCN)c1c(N)cc(Cl)cc21` [Compound 348, 6-Amino-5-(3-amino-propyl)-8-chloro-3-methyl-2,5-dihydro-pyrazolo[4,3-c]quinolin4-one], less than 1000 nM. Next, `Cc1[nH]nc2c1c(=O)n(CCCO)c1ccc(Cl)cc21` [Compound 209, 8-Chloro-5-(3-hydroxy-propyl)-3-methyl-2,5-dihydro-pyrazolo[4,3-c]quinolin-4-one]: less than 1000 nM. Next, `CCc1[nH]nc2c1c(=O)n(CCCN)c1ccc(Cl)cc21` [Example 311, 5-(3-Amino-propyl)-8-chloro-3-ethyl-2,5-dihydro-pyrazolo[4,3-c]quinolin-4-one hydrochloride]: less than 1000 nM. With `C#Cc1ccc2c(c1)c1n[nH]c(C)c1c(=O)n2CCCNC` [Example 293, 8-Ethynyl-3-methyl-5-(3-methylamino-propyl)-2,5-dihydro-pyrazolo[4,3-c]quinolin-4-one], the IC50 is less than 1000 nM.

As for `Cc1[nH]nc2c1c(=O)n(CCCN)c1ccc(C#Cc3cccnc3)cc21` [Example 277], the IC50 was less than 1000 nM. For `CCCOc1ccc2c(c1)c1n[nH]c(C)c1c(=O)n2CCCN` [Example 258, 5-(3-Amino-propyl)-3-methyl-8-propoxy-2,5-dihydro-pyrazolo[4,3-c]quinolin-4-one] the value was less than 1000 nM. For `Cc1[nH]nc2c1c(=O)n(CCCN)c1ccc(C#CCn3ccnc3)cc21` [Example 290, 5-(3-Amino-propyl)-8-(3-imidazol-1-yl-prop-1-ynyl]-3-methyl-2,5-dihydro-pyrazolo[4,3-c]quinolin-4-one] the value was less than 1000 nM; for `Cc1[nH]nc2c1c(=O)n(CCCN)c1ccc(F)cc21` [Compound 203, 5-(3-Amino-propyl)-8-fluoro-3-methyl-2,5-dihydro-pyrazolo[4,3-c]quinolin-4-one], less than 1000 nM.

The values are drawn from patent publication US20050245563A1 (Millennium Pharmaceuticals, Inc., priority 2003, published 2005).
